Test results published in US4137322A, “ML-236B carboxylic acid derivatives and their use as antihyperlipemic agents” (Sankyo Company Limited, priority 1976, dated 1979).
Read-outs that look alike come from different tables or passages of the source.

Legend:
[1] = test system: serum cholesterol in rats; assay: Lowering activity of blood cholesterol in rats; format: in vivo, rat; conditions: for inhibition in vivo at 5 mg/kg / inhibition in vivo at 20 mg/kg: Rattus norvegicus, po, 18 h, read-out: Lowering rate of serum cholesterol
Description: A lowering activity of blood cholesterol in rats was assayed on rats. The test was to orally administer a test sample suspended in water, collect a blood sample after 18 hours and determine a cholesterol level in serum by a conventional method.

[2] = Acute toxicity in mouse; conditions: in vivo, ip
Description: (§1) Acute toxicity of ML-236B carboxylic acid derivatives (I) was determined in oral and intraperitoneal administration (both as an aqueous suspension).

[3] = test system: total serum cholesterol in beagle dogs; assay: Lowering activity of blood cholesterol in beagle dogs; format: in vivo, beagle dog; conditions: for inhibition in vivo at 25 mg/kg/day / inhibition in vivo at 100 mg/kg/day: Canis lupus familiaris, po, 120 h, read-out: Lowering rate of total serum cholesterol
Description: The test was to orally administer an encapsulated test sample twice per day, in the morning (9 o'clock) and evening (16 o'clock), for continuous 5 days, collect a blood sample in the morning after 5 days and determine a total cholesterol level in serum by a conventional method.

[4] = test system: cholesterol biosynthesis; assay: Inhibition of cholesterol biosynthesis; format: biochemical
[5] = Acute toxicity in rat; conditions: in vivo, po
Description: as §1

[6] = target: T1, 3-hydroxy-3-methylglutaryl-CoA reductase (Rattus norvegicus, UniProt P51639); assay: Inhibition of 3-hydroxy-3-methylglutaryl-CoA reductase; format: biochemical
T1 construct: Employed as an enzyme microsome of rat liver; from tissue; host or cells: rat liver microsomes
T1 sequence (P51639 1-887): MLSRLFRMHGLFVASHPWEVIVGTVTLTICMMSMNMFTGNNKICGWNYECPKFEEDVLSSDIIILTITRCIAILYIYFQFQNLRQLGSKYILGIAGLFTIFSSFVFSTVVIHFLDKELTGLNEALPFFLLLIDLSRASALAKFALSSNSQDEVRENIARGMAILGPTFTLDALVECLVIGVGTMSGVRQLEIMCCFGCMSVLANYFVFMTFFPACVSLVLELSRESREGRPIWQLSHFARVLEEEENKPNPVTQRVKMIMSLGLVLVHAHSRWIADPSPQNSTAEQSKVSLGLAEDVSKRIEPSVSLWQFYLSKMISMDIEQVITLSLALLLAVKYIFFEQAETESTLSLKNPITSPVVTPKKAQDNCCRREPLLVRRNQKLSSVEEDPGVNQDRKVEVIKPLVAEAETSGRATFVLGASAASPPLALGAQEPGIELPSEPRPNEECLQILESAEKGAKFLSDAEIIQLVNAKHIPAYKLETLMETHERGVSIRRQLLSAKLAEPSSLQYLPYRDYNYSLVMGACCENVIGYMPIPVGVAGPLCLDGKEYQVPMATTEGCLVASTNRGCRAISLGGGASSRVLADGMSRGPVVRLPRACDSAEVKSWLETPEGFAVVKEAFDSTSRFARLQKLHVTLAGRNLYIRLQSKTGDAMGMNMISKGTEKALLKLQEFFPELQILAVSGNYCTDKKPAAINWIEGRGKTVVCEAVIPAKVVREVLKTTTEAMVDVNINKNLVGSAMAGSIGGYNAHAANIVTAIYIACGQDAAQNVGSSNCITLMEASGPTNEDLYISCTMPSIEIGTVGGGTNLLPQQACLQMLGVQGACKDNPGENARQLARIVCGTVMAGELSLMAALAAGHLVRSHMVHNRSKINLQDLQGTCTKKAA
Description: Inhibition activity of cholesterol biosynthesis [determined according to the method disclosed in J. Biol. Chem., 234, 2835 (1959)] and inhibition activity on 3-hydroxy-3-methylglutaryl-CoA reductase [determined according to the method disclosed in Anal. Biochem., 31, 383 (1969)] of these compounds are summarized in Table 1.
*Employed as an enzyme microsome of rat liver.

[7] = test system: Mouse; assay: Acute toxicity in mouse; conditions: aqueous suspension
Description: as §1

[8] = test system: Rat; assay: Acute toxicity in rat; conditions: aqueous suspension
Description: as §1

[9] = rats, 5 mg/kg, oral, after 18 hours
[10] = rats, 20 mg/kg, oral, after 18 hours
[11] = LD50, mouse, aqueous suspension
[12] = beagle dogs, 25 mg/kg/day, oral twice per day, 5 days
[13] = beagle dogs, 100 mg/kg/day, oral twice per day, 5 days
[14] = enzyme: microsome of rat liver, read-out: Concentration to inhibit 50% of 3-hydroxy-3-methylglutaryl-CoA reductase (converted)
[15] = rats, 5 mg/kg, oral, after 18 hours, 5 mg/kg
[16] = rats, 20 mg/kg, oral, after 18 hours, 20 mg/kg

Compound	inhibition in vivo at 5 mg/kg [1, 9]	inhibition in vivo at 20 mg/kg [1, 10]	LD50 [2, 11]	inhibition in vivo at 25 mg/kg/day [3, 12]	inhibition in vivo at 100 mg/kg/day [3, 13]	Concentration to inhibit 50% of cholesterol biosynthesis [4]	LD50 ([5]; LD50, rat, aqueous suspension)	IC50 [6, 14]	other results
CCC(C)C(=O)OC1CCC=C2C=CC(C)C(CCC(O)CC(O)CC(=O)OCC(=O)c3ccc(Br)cc3)C21 (centres unmarked) [4-bromophenacyl, 4-Bromophenacyl ML-236B carboxylate]	17%	24%	> 500 mg/kg	21%	30%	0.01 µg/mL	> 2000 mg/kg	0.33 µM	
CCC(C)C(=O)OC1CCC=C2C=CC(C)C(CCC(O)CC(O)CC(=O)OCc3ccc(Cl)cc3)C21 (centres unmarked) [4-chlorobenzyl, 4-Chlorobenzyl ML-236B carboxylate]	15%	21%	> 500 mg/kg	20%	36%	0.01 µg/mL	> 2000 mg/kg	0.375 µM	
CCC(C)C(=O)OC1CCC=C2C=CC(C)C(CCC(O)CC(O)CC(=O)OCc3ccc(OC)cc3)C21 (centres unmarked) [4-methoxybenzyl, 4-Methoxybenzyl ML-236B carboxylate]						0.01 µg/mL			inhibition in vivo at 5 mg/kg [1]: 17%; inhibition in vivo at 20 mg/kg [1]: 20%; LD50 [2]: > 500 mg/kg; inhibition in vivo at 25 mg/kg/day [3]: 26%; inhibition in vivo at 100 mg/kg/day [3]: 36%; LD50 [5]: > 2000 mg/kg; IC50 [6]: 0.378 µM
CCC(C)C(=O)OC1CCC=C2C=CC(C)C(CCC(O)CC(O)CC(=O)OCC(=O)c3ccc(OC)cc3)C21 (centres unmarked) [4-methoxyphenacyl, 4-Methoxyphenacyl ML-236B carboxylate]	14%	23%	> 500 mg/kg	26%	39%	0.01 µg/mL	> 2000 mg/kg	0.359 µM	
CCC(C)C(=O)OC1CCC=C2C=CC(C)C(CCC(O)CC(O)CC(=O)OCc3ccc(C)cc3)C21 (centres unmarked) [4-methylbenzyl, 4-Methylbenzyl ML-236B carboxylate]	13%	26%	> 500 mg/kg	30%	41%	0.01 µg/mL	> 2000 mg/kg	0.39 µM	
CCC(C)C(=O)OC1CCC=C2C=CC(C)C(CCC(O)CC(O)CC(=O)OCC(=O)c3ccc(C)cc3)C21 (centres unmarked) [4-methylphenacyl, 4-Methylphenacyl ML-236B carboxylate]	14%	19%	> 500 mg/kg	20%	33%	0.01 µg/mL	> 2000 mg/kg	0.37 µM	
CCC(C)C(=O)OC1CCC=C2C=CC(C)C(CCC(O)CC(O)CC(=O)O)C21 (centres unmarked) [Al, Aluminum ML-236B carboxylate]						0.006 µg/mL			Lowering rate of serum cholesterol [1, 15]: 18.3%; Lowering rate of serum cholesterol [1, 16]: 22.1%; LD50 ([7]; i.p.): > 500 mg/kg; LD50 ([7]; p.o., listed as Al salt): > 2,000 mg/kg; Lowering rate of total serum cholesterol [3, 12]: 26%; Lowering rate of total serum cholesterol [3, 13]: 41%; LD50 ([8]; i.p.): > 500 mg/kg; LD50 ([8]; p.o., listed as Al salt): > 2,000 mg/kg
CCC(C)C(=O)OC1CCC=C2C=CC(C)C(CCC(O)CC(O)CC(=O)O)C21 (centres unmarked) [Ca, Calcium ML-236B carboxylate]						0.006 µg/mL			Lowering rate of serum cholesterol [1, 15]: 16.5%; Lowering rate of serum cholesterol [1, 16]: 20.9%; LD50 ([7]; i.p.): > 500 mg/kg; LD50 ([7]; p.o., listed as Ca salt): > 2,000 mg/kg; Lowering rate of total serum cholesterol [3, 12]: 28%; Lowering rate of total serum cholesterol [3, 13]: 44%; LD50 ([8]; i.p.): > 500 mg/kg; LD50 ([8]; p.o., listed as Ca salt): > 2,000 mg/kg
CCC(C)C(=O)OC1CCC=C2C=CC(C)C(CCC3CC(O)CC(=O)O3)C21 (centres unmarked) [ML-236B]	11.2%	17.1%		< 5%	19%	0.01 µg/mL		12.3 µM	
CCC(C)C(=O)OC1CCC=C2C=CC(C)C(CCC(O)CC(O)CC(=O)OCc3ccccc3)C21 (centres unmarked) [benzyl, Benzyl ML-236B carboxylate]	14%	24%	> 500 mg/kg	24%	38%	0.01 µg/mL	> 2000 mg/kg	0.401 µM	
CCOC(=O)CC(O)CC(O)CCC1C(C)C=CC2=CCCC(OC(=O)C(C)CC)C21 (centres unmarked) [ethyl, Ethyl ML-236B carboxylate]						0.01 µg/mL			inhibition in vivo at 5 mg/kg [1]: 19%; inhibition in vivo at 20 mg/kg [1]: 25%; LD50 [2]: > 500 mg/kg; inhibition in vivo at 25 mg/kg/day [3]: 13%; inhibition in vivo at 100 mg/kg/day [3]: 19%; LD50 [5]: > 2000 mg/kg; IC50 [6]: 0.366 µM
CCC(C)C(=O)OC1CCC=C2C=CC(C)C(CCC(O)CC(O)CC(=O)OC(C)C)C21 (centres unmarked) [isopropyl, Isopropyl ML-236B carboxylate]	16%	25%	> 500 mg/kg	19%	30%	0.04 µg/mL	> 2000 mg/kg	0.355 µM	
CCC(C)C(=O)OC1CCC=C2C=CC(C)C(CCC(O)CC(O)CC(=O)OC)C21 (centres unmarked) [methyl, Methyl ML-236B carboxylate]						0.01 µg/mL			inhibition in vivo at 5 mg/kg [1]: 18%; inhibition in vivo at 20 mg/kg [1]: 23%; LD50 [2]: > 500 mg/kg; inhibition in vivo at 25 mg/kg/day [3]: 12%; inhibition in vivo at 100 mg/kg/day [3]: 26%; LD50 [5]: > 2000 mg/kg; IC50 [6]: 0.355 µM
CCCCOC(=O)CC(O)CC(O)CCC1C(C)C=CC2=CCCC(OC(=O)C(C)CC)C21 (centres unmarked) [n-butyl, n-Butyl ML-236B carboxylate]	20%	26%	> 500 mg/kg	32%	46%	0.02 µg/mL	> 2000 mg/kg	0.344 µM	
CCCCCCOC(=O)CC(O)CC(O)CCC1C(C)C=CC2=CCCC(OC(=O)C(C)CC)C21 (centres unmarked) [n-hexyl, Hexyl ML-236B carboxylate]	14%	23%	> 500 mg/kg	17%	29%	0.02 µg/mL	> 2000 mg/kg	0.365 µM	
CCC(C)C(=O)OC1CCC=C2C=CC(C)C(CCC(O)CC(O)CC(=O)OCC(=O)c3ccccc3)C21 (centres unmarked) [phenacyl, Phenacyl ML-236B carboxylate]	14%	21%	> 500 mg/kg	32%	42%	0.01 µg/mL	> 2000 mg/kg	0.38 µM	
